{"source": "patent US20190298720A1", "about": "“USE OF SRC FAMILY KINASE INHIBITOR IN RIBOSOMAL DISORDER” (BIOXCEL CORPORATION, priority 2016, published 2019)", "key": {"[1]": {"tested_on": "Lyn kinase", "assay": "Lyn kinase activity in RPS19 knock-down zebrafish embryos", "type": "in vivo", "settings": "25 μM, 50 μM and 100 μM"}, "[2]": {"tested_on": "Id1 expression in lung cancer cell lines", "settings": "cited from earlier work"}, "[3]": {"tested_on": "RPS19 knock-down zebrafish embryos", "assay": "Erythropoiesis in a zebrafish model of DBA using RPS19 morpholino (o-dianisidine staining)", "type": "in vivo", "settings": "for % improvement of erythropoiesis / % intensity of staining: injected 1 cell stage & aqueous exposure, RPS19 Mo", "method": "To evaluate the effect of Saracatinib, a Src kinase inhibitor (Lyn kinase) on improving erythropoiesis in a zebrafish model of DBA using RPS19 morpholino.\nMaterials: Zebrafish (One celled stage), RPS19 morpholino (1 ng) and standard control morpholino were dissolved in ultrapure water. Saracatinib (Selleckchem; Cat no. 51006) was dissolved in 1% DMSO to achieve […], 50 μM and 100 μM concentrations. 0-dianisidine staining solution was made by dissolving 100 mg of 0-dianisidine in 70 mL ethanol, Acetate buffer (49 mL, 0.1 M Sodium acetate and 51 mL, 0.1 M acetic acid), 3% Hydrogen peroxide and ultrapure water; Phosphate buffer saline (PBS), Para formaldehyde (PFA), Tricaine methane sulfonate (ms-222) and Bleach solution (equal parts of 1% Potassium hydroxide and 3% Hydrogen peroxide) were used in the experimental procedures.\n(i) Control Mo, Egg water represents the zebrafish embryos which were injected with standard control morpholino, and 1% DMSO thriving in egg water, (ii) RPS19 Mo, Egg water represents wild type zebrafish embryos microinjected with 1 ng of RPS19 morpholino, and 1% DMSO; thriving in egg water, and (iii) RPS19 Mo+Saracatinib injected 1 cell stage and aqueous exposure represents zebrafish embryos which were microinjected with RPS19 morpholino and where Saracatinib was also microinjected at 1-cell stage along with adding Saracatinib in the aqueous phase or egg water.\nThe wild type zebrafish with egg water were placed in separate wells and were microinjected with standard control morpholino and 1% DMSO, which acted as normal control (Control Mo, Egg water). The wild type zebrafish eggs were injected with 1 ng of RPS19 morpholino and 1% DMSO at 1-cell stage (RPS19 Mo, Egg water), and were incubated at 28.5° C. for 96 hours. Saracatinib was microinjected in the zebra fish at one cell stage and also exposed in the media (aqueous exposure) to achieve optimal concentrations of 25 μM, 50 μM and 100 μM (RPS19 Mo+Saracatinib injected 1 cell stage and aqueous exposure). The experiment was carried out in the 6-well plates for control (Control Mo, Egg water); morpholinos group (RPS19 Mo, Egg water) and Saracatinib treatment group (RPS19 Mo+Saracatinib injected 1 cell stage and aqueous exposure) respectively. The incubation of the zebrafish in various groups was carried out up to 96 hours at 28.5° C. and the embryos were visually observed for any phenotypic changes or mortality. The embryos were euthanized at the end of the study by using tricaine methane sulfonate (ms-222), and fixed in 4% PFA for 2 hours at room temperature. After fixing and washing the embryos thoroughly (3 times) in 1×PBS, o-dianisidine staining was carried out for 30 minutes at room temperature in the dark to assess haemoglobin concentration. Embryos were then washed 3 times in 1×PBS and incubated in bleach solution for 20 minutes at room temperature. Further washing of the embryos were also carried out in 1×PBS to avoid any unnecessary staining. Quantitation of o-dianisidine staining in zebrafish embryos.\nHaemoglobin quantification/total amount of the o-dianisidine staining on total embryo was calculated by using Image J software. The total embryo area and the intensity was noted by the software, by manually tracing the exact area of the embryo. The ratios of the intensity and the total embryo area was thus used to calculate the intensity per unit area which is then compared across groups (Control Mo, Egg water; RPS19 Mo, Egg water and RPS19 Mo+Saracatinib injected 1 cell stage and aqueous exposure). Percent intensity of staining of embryos was considered to be proportional to the haemoglobin concentration in each embryo and thus % improvement or recovery of erythropoiesis by administration of Saracatinib was further calculated."}}, "note": "“Also recorded” adds a separate entry of the source."}
{"smiles": "CN1CCN(CCOc2cc(OC3CCOCC3)c3c(Nc4c(Cl)ccc5c4OCO5)ncnc3c2)CC1", "note": "[Saracatinib, N-(5-chloro-1,3-benzodioxol-4-yl)-7-[2-(4-methyl-1-piperazinyl)ethoxy]-5-[(tetrahydro-2H-pyran-4-yl)oxy]-4-quinazolinamine]", "values": [{"measurement": "Lyn kinase activity", "setting": "[1]", "result": "decrease in the Lyn kinase activity"}, {"measurement": "Id1 expression", "setting": "[2]", "result": "downregulates the Id1 expression"}, {"measurement": "Erythropoiesis / erythropoietic defect (in words)", "setting": "[3]; 25 μM, 50 μM and 100 μM, compared to RPS19 injected morpholinos, 96 hpf, o-dianisidine staining", "result": "rescue in haemopoietic defect; also recorded: dose related improvement in erythropoiesis; also recorded: improvement in the erythropoietic defect"}, {"measurement": "% improvement of erythropoiesis", "setting": "[3]; Saracatinib 25 μM, 96 hpf", "result": 10.49, "unit": "%"}, {"measurement": "% intensity of staining", "setting": "[3]; Saracatinib 25 μM, 96 hpf", "result": 2.646, "unit": "%"}, {"measurement": "% improvement of erythropoiesis", "setting": "[3]; Saracatinib 50 μM, 96 hpf", "result": 36.75, "unit": "%"}, {"measurement": "% intensity of staining", "setting": "[3]; Saracatinib 50 μM, 96 hpf", "result": 3.557, "unit": "%"}, {"measurement": "% improvement of erythropoiesis", "setting": "[3]; Saracatinib 100 μM, 96 hpf", "result": 19.82, "unit": "%"}, {"measurement": "% intensity of staining", "setting": "[3]; Saracatinib 100 μM, 96 hpf", "result": 3.18, "unit": "%"}, {"measurement": "Haemoglobin concentration (in words)", "setting": "[3]; compared to zebrafish treated with RPS19 morpholino", "result": "increased haemoglobin concentration"}]}
